Reference: patent US20030186948A1, “O-linked N-acetylglucosamine pathway in the pathogenesis of neurodegeneration and diabetes” (priority 2000, published 2003)
pIC50: −log10 of the molar value. Where a SMILES comes first, the peptide text is derived from it. [ ]: non-standard residue; d: D form. The star is where a group is joined. Nle = CCCC[C@H](N)C(=O)O; Cbz = O=C(OCc1ccccc1)*

Tests used:
[1] = molecular target: T1, brain proteasome LLVY chymotryptic activity (Rattus norvegicus, UniProt P28075); test: suc-LLVY-AMC cleavage in brain extract of streptozotocin-injected animals; type: in vivo
T1 construct: Brain extract was prepared from animals injected with or without streptozotocin; from tissue; host or cells: brain extract
T1 sequence (P28075 60-263): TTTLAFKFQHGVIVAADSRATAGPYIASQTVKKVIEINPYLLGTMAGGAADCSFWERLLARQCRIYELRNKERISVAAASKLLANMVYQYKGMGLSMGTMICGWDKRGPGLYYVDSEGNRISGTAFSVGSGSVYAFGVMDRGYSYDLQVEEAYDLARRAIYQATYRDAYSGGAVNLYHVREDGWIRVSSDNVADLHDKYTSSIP
Method: To determine whether STZ-injected animals display a n alteration in proteasomal function, the cleavage of the peptide LLVY was examined following streptozotocin treatment. Brain extract was prepared from animals injected with or without streptozotocin, and suc-LLVY-AMC was added to the extract.

[2] = tested on: p135 O-glycosylation in pancreatic islets; test: Pancreatic islet p135 O-glycosylation (RL2 immunoprecipitation and Western blot); type: cell-based, rat; conditions: for inhibition of p135 O-glycosylation: comparison with NOC-15, FIG. 12
Method: Rat pancreatic islets were isolated, counted into tubes and pre-incubated with 3 mM glucose. Following pre-incubation, islets were stimulated with 3 mM glucose, 5 mM STZ, 5 mM NOC-15, or 5 mM DPTA. NOC-15 ((Z)-1-[N-(3-Ammoniopropyl)-N-(n-propyl)amino]diazen-ium-1,2-diolate, also known as PAPA NONOate) is a structural analog of […] (FIG. 9). At the end of the experiment, O-glycosylated proteins were immunoprecipitated with RL2 antibody, which binds to O-linked N-acetylglucosamine. Immunoprecipitated proteins were run out on a 6.5% SDS-PAGE gel and the proteins were then transferred to a nitrocellulose blot. The blot was then probed with RL2 antibody, which was detected by the ECL method. The blot was exposed to X-ray film and the film was developed and photographed. […] The structure and action of NOC-15 can thus be used as a basis to synthesize drugs that can be used to prevent and/or treat diabetes.

[3] = tested on: Sp1 proteasome degradation; test: Sp1 depletion in cells under low glucose and cAMP accumulation; type: cell-based
Description: This study therefore correlated the stability of Sp1 against proteasome degradation with the level of Sp1 modification by O-GleNAc.
The depletion of O-GlcNAc on Sp1 and other proteins appeared to have resulted both from the glucose starvation and from the cAMP.

pancreatic islets = test: TUNEL assay and p53 staining of pancreatic slices from STZ-treated rats; type: in vivo, rat
Method: The effect of streptozotocin on p53 accumulation in the islets was determined using immunohistochemistical analysis of pancreatic slices from rats treated for various times with STZ. […] This assay has been described thoroughly (Liu et al., 2000). The TUNEL positivity peaks at about 22-24 hours after the administration of STZ. When the tissue was stained with p53 antibodies, it was noted that p53 accumulation preceded the apoptosis. […] This corresponds with the observation the O-GlcNAc transferase is much more highly expressed in the endocrine pancreas. STZ also is toxic to the somatotropes in the pituitary where O-GlcNAc transferase is highly expressed. Thus, it is predicted there where O-GlcNAc transferase is abundant, STZ-sensitivity should be seen.

hippocampal neurons = test: Intracerebroventricular streptozotocin in TGFα-βgal mice: p53 staining and reporter function in brain; type: in vivo, mouse
Method: A number of research groups have developed techniques of injecting streptozotocin into the cerebral ventricles (Lannert & Hoyer, 1998; Weinstock et al., 2001; Sharma & Gupta, 2002). To determine if treatment with streptozotocin causes p53 accumulation in the brain, freshly prepared streptozotocin can be injected stereotactically into the cerebral ventricles, and the brain tissues can then be stained for the presence of p53. When the control TGFα-βgal mice were injected with vehicle alone, no p53 was detected 16 hours post injection. […] STZ was also injected into TGFα-βgal mice with a homozygous knock-out of p53.
The brains slices from similar mice receiving icv injections 36 hours prior to sacrifice were examined for TGFα-βgal reporter function.

[4] = tested on: TGFα promoter β-gal reporter in pancreatic β-cells; test: TGFα-βgal reporter activity in islets after streptozotocin injection; type: in vivo, mouse; conditions: TGFα-βgal reporter mice, dose that causes β-cell apoptosis
Method: The TGFα promoter was placed in front of the β-galactosidase reporter gene and developed two lines of transgenic mice. The line with the best reporter activity was used in all subsequent experiments. Tissue expression of the reporter was detected as follows: tissues were quickly excised, cut into pieces, and fixed in 4% paraformaldehyde (made in PBS, pH 7.5) for 30 min at 4° C. Tissue sections were rinsed three times 10 min each in ice-cold PBS, immersed in freshly prepared staining solution [10 ml solution of PBS (pH 7.4) containing 2 mM MgCl2, 0.01% sodium deoxycholate, 0.02% NP40, 0.1% X-gal dissolved in dimethylformamide, 82.5 mg potassium ferricyanide, and 94.5 mg potassium ferrocyanide], and incubated overnight at 37° C. The reaction was stopped by rinsing the organs in PBS. Sampleswere stored in 70% ethanol at 4° C. […] For example, β-gal activity was detected in the pituitary and in some neurons, sites where native TGFα had been detected before. […] Of particular interest in this regard was the absence of staining in the exocrine and endocrine pancreas.
Because p53 accumulates in the islet in response to STZ, and TGFα transcription is driven by p53, it is reasonable to examine the TGFα reporter mice for TGFα promoter activation in the islets. Mice were injected with streptozotocin at the dose that cause β-cell apoptosis. […]

[5] = tested on: hippocampal neurons (CA1 region); test: RL2 immunostaining of brain O-GlcNAc after cerebroventricular streptozotocin; type: in vivo, rat; conditions: 6 hours after injection
Method: To determine if streptozotocin causes hippocampal neuron O-GlcNAc accumulation, the drug was delivered stereotactically to the cerebroventricles of a rat brain. The brain tissues were then stained for O-GlcNAc content using the O-GlcNAc-specific monoclonal antibody, RL2. Staining of rat tissue by this mouse antibody is easier because detection is not hampered by endogenous mouse IgG. Staining is blocked by preincubation of RL2 with GlcNAc, but not GalNAc or glucosamine (needs acetylation) or other sugars. The bound RL2 can be detected by fluorescent-tagged antimouse IgG antibody. […] At 6 hours post-injection, the animals were sacrificed and brain O-GlcNAc content was detected with RL2 immunostaining as previously described (Liu et al., 2000).

[6] = tested on: O-GlcNAc modification of p135 in isolated β-cells; test: O-GlcNAc modification of p135 in isolated β-cells treated with alloxan; type: cell-based
Method: (§1) Another chemical means of inhibiting O-GlcNAc transferase has been discovered. Another long known diabetogenic drug, alloxan (ALX) (FIG. 8 above), is a uracil analog. Injections of this drug into laboratory rats also causes a relatively specific death of the pancreatic β-cells. […] Purified recombinant O-GlcNAc transferase is inhibited half-maximally by 0.1 mM alloxan, compatible with the dose of this drug that causes diabetes. These studies indicate that an analog of UDP-GlcNAc that mimics the uracil moiety like alloxan, might be an index compound for the discovery of other UDP-GlcNAc like molecules that inhibit the O-GlcNAc transferase.

[7] = molecular target: T2, Purified recombinant O-GlcNAc transferase (Homo sapiens, UniProt O15294); test: Inhibition of purified recombinant O-GlcNAc transferase; type: biochemical
T2 sequence (O15294 1-1046): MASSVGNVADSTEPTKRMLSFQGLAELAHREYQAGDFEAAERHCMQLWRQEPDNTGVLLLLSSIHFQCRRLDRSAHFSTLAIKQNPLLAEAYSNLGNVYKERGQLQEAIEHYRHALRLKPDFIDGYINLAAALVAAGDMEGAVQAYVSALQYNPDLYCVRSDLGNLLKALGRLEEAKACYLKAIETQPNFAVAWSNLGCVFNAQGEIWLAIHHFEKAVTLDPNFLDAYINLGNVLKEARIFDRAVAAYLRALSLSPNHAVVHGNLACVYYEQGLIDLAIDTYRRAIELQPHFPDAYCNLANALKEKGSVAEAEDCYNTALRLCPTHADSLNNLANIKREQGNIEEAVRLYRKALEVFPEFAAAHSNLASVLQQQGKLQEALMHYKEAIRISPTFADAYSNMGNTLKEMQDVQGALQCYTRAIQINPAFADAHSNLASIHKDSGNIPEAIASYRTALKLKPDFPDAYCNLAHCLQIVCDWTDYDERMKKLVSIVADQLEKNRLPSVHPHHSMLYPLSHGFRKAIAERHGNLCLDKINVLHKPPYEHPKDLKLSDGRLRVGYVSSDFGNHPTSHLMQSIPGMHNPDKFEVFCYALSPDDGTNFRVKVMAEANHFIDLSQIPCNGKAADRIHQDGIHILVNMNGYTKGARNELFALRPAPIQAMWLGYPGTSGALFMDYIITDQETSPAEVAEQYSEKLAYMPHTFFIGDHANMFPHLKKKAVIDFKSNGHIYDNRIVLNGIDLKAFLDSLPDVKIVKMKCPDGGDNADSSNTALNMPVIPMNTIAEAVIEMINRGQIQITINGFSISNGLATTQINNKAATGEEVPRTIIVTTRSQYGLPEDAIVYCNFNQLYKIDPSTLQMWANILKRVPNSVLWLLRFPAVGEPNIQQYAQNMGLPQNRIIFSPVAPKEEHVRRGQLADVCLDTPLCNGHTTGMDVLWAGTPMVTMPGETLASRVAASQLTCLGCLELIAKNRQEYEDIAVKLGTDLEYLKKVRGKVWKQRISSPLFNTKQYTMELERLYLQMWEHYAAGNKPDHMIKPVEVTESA
Method: as §1

[8] = tested on: proteasome processing of Sp1 in nuclear extract; test: Sp1 degradation by proteasome in nuclear extract; type: biochemical; conditions: activated nuclear extract
[9] = molecular target: T3, proteasome chymotryptic activity in NRK nuclear extracts (Rattus norvegicus, UniProt P28075); test: suc-LLVY-AMC proteasome peptidase assay in NRK nuclear extracts; type: biochemical; conditions: cells treated before extract preparation; data not shown
T3 construct: endogenous in cells; host or cells: NRK cells, nuclear extract
T3 sequence (P28075 60-263): T1 sequence (P28075 60-263)
Method: The chymotryptic activity of the proteasome itself can be measured using short synthetic peptides. The peptide, N-succinyl-Leu-Leu-Val-Tyr-7-amido-4-methylcoumarin (suc-LLVY-AMC) (Sigma), is coupled to a fluorescent indicator, and the cleavage can be monitored and quantitated by a fluorometer. […] The reaction is carried out in a 96 well plate.
If the chymotryptic cleavage has occurred, the fluorescence can b e excited with UV light at 365 nm and detected by a CCDdigital camera coupled to a computer. Because the LLVY peptide can be cleaved by any enzyme having chymotryptic activity, cleavage is not specifically proteasome-dependent. However, if cleavage is blocked by a wide spectrum proteasome inhibitors, then it is reasonable to deduce that the detected fluorescence is proteasome-dependent.
Proteasome peptidase activity in activated NRK nuclear extracts was examined with this assay. The activity could be inhibited by preincubating the extract with known proteasome inhibitors indicating the fluorescent signal derives from authentic proteasome activity (FIG. 2). […] When the extract was exposed briefly to GST-OGT plus UDP-GlcNAc and then the O-GlcNAc transferase was removed, the chymotryptic activity was eliminated. GST had no effect on the proteasome activity. […] The chymotryptic activity of the proteasome was stimulated by this treatment.

CC(C)[C@H](O)[C@@]12NC(=O)[C@H](C)[C@@H]1OC2=O [β-lactone]
suc-LLVY-AMC fluorescence in brain extract ([1]; inhibitor added to extract): inhibited

NCCCNCCCCN(CCCN)/[N+]([O-])=N/O [Spermine NONOate]
inhibition of p135 O-glycosylation [2]: do not inhibit

CC(C)C[C@@H](C=O)NC(=O)[C@H](CC(C)C)NC(=O)[C@H](CC(C)C)NC(=O)OCc1ccccc1 [MG132] (Cbz-Leu-Leu-Leu-aldehyde)
loss of Sp1 under low glucose and cAMP accumulation [3]: blocked

CN(N=O)C(=O)N[C@H]1C(O)O[C@H](CO)[C@@H](O)[C@@H]1O (mixture of isomers) [streptozotocin]
LLVY chymotryptic activity in the brains of treated animals ([1]; brain extract, preliminary results): marked inhibition | p53 accumulation in islets (pancreatic islets; at 16 hours): well established | time of peak TUNEL positivity after administration (pancreatic islets; rat islets): 22 to 24 h | apoptosis in islets by TUNEL assay (pancreatic islets; rats treated with STZ): causes apoptosis | effect on p135 O-glycosylation ([2]; rat islets, 5 mM): stimulated | p53 by immunohistochemistry in neurons of the hippocampus (hippocampal neurons; 16 hours post icv injection): readily detectable | TGFα-βgal reporter function in hippocampal neurons (hippocampal neurons; icv injection 36 hours prior to sacrifice, wildtype TGFα-βgal mice): show reporter function | β-gal reporter activity in pancreas [4]: appeared in the β-cells but not exocrine pancreas | O-GlcNAc signal in hippocampal neurons (RL2) [5]: marked increase

O=C1NC(=O)C(=O)C(=O)N1 [alloxan]
increase in the O-GlcNAc modification of p135 in response to glucose or glucosamine [6]: fail to display an increase | pIC50 [7]: 4.00

CC(=O)N[C@H]1[C@@H](OP(=O)(O)OP(=O)(O)OC[C@H]2O[C@@H](n3ccc(=O)[nH]c3=O)[C@H](O)[C@@H]2O)O[C@H](CO)[C@H](O)[C@@H]1O [UDP-GalNAc]
effect on the inhibitory effect of catalytically active O-GlcNAc transferase on Sp1 processing [8]: partially blocked

NCCCN(CCCN)/[N+]([O-])=N/O [DPTA]
inhibition of p135 O-glycosylation [2]: do not inhibit

CCCN(CCCN)/[N+]([O-])=N/O [NOC-15, (Z)-1-[N-(3-Ammoniopropyl)-N-(n-propyl)amino]diazen-ium-1,2-diolate]
inhibition of STZ-induced p135 O-glycosylation ([2]; rat islets, 5 mM streptozotocin and 5 mM NOC-15): almost completely inhibiting

N[C@H]1C(O)O[C@H](CO)[C@@H](O)[C@@H]1O (stereo partly shown) [glucosamine]
Sp1 degradation after glucose starvation and forskolin ([3]; cells provided glucosamine): degradation decreased | proteasome chymotryptic activity of extract from treated cells [9]: does not display this activity

CC(=O)N[C@@H](CSC(=O)[C@]1([C@@H](O)C(C)C)NC(=O)[C@H](C)[C@@H]1O)C(=O)O [lactacystin]
loss of Sp1 under low glucose and cAMP accumulation [3]: blocked | proteasome chymotryptic activity of extract from treated cells [9]: does not display this activity

CCCC[C@@H](C=O)NC(=O)[C@H](CC(C)C)NC(=O)[C@H](CC(C)C)NC(C)=O [LLnL] (Ac-Leu-Leu-[Nle]-aldehyde)
loss of Sp1 under low glucose and cAMP accumulation [3]: blocked
